From the NIST ThermoML archive (doi:10.1016/j.jct.2012.08.023)

Assay: mn = molality of the nth substance listed, in mol/kg
Details: 101.3 kPa, Liquid; for speed of sound: Single path-length method; for mass density: Vibrating tube method

COCCOCCOCCO [2-[2-(2-methoxyethoxy)ethoxy]ethanol] + O
Details	mass density, 288.15 K [kg/m3]	mass density, 298.15 K [kg/m3]	mass density, 308.15 K [kg/m3]	speed of sound, 288.15 K [m/s]	speed of sound, 298.15 K [m/s]	speed of sound, 308.15 K [m/s]
m1 = 0.0992	1000.76	998.595	995.371	1476.9	1505.2	1526.8
m1 = 0.2191	1002.54	1000.32	997.022	1490.1	1516.8	1535.9
m1 = 0.4289	1005.5	1003.2	999.755	1510.7	1533	1549.8
m1 = 0.5088	1006.57	1004.24	1000.75	1517.7	1539.4	1554.7
m1 = 0.5825	1007.53	1005.17	1001.64	1525	1544.9	1559.5
m1 = 0.7077	1009.12	1006.71	1003.1	1537.2	1555.8	1568.3
m1 = 0.7956	1010.2	1007.75	1004.09	1543.9	1560.4	1572.2
m1 = 0.9789	1012.35	1009.85	1006.07	1467.3	1570.5	1580

CCCCn1cc[n+](C)c1.[Br-] [1-butyl-3-methylimidazolium bromide] + O
Details	mass density, 288.15 K [kg/m3]	mass density, 298.15 K [kg/m3]	mass density, 308.15 K [kg/m3]	speed of sound, 288.15 K [m/s]	speed of sound, 298.15 K [m/s]	speed of sound, 308.15 K [m/s]
m1 = 0.0915	996.409	996.531	991.528	1490.7	1516.7	1535.5
m1 = 0.0969	1001.56	999.293	996.365	1489.1	1517	1537.9
m1 = 0.1014	989.502	997.101	992.565	1490.9	1520.2	1540.2
m1 = 0.2656	1010.44	1007.45	1005.51	1511.6	1536.2	1554.5
m1 = 0.2803	1007.11	1005.82	1002.41	1512.3	1536.8	1555.3
m1 = 0.2869	1010.49	1005.51	1001.76	1512.3	1536.8	1555.3
